Source: paper PMC11375437, “Selective labelling of GBA2 in cells with fluorescent β-D-arabinofuranosyl cyclitol aziridines” (Chemical Science, 2024)

Target: T1, rhGBA1 (Homo sapiens, UniProt P04062, R534H)
T1 construct: purchased Sanofi Genzyme (gift) Cerezyme®
T1 sequence (P04062 40-536 R534H): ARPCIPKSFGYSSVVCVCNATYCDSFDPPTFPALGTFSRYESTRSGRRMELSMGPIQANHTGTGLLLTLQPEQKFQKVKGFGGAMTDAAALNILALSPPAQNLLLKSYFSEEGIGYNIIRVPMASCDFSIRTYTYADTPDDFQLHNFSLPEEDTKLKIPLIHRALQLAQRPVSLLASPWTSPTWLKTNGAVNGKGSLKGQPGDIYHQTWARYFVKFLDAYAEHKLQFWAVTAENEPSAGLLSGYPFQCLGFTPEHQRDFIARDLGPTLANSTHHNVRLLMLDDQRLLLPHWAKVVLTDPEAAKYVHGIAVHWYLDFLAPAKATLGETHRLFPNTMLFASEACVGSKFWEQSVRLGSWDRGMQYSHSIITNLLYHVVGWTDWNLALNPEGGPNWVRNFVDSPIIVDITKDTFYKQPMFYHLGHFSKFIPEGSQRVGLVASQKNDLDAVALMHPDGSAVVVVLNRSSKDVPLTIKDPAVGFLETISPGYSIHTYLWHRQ
Assay: Labelling of GBA2 OE lysate spiked with rhGBA1, residual rhGBA1 read out with ABP 10 or 11
Type: biochemical
Conditions: GBA2 OE lysate spiked with 3 ng rhGBA1; 30 min
Description: To this end, lysates of HEK293T cells containing all β-glucosidases (endogenous GBA1 with overexpressed GBA2 and GBA3) were treated with ABPs 3, 4, 5 or 7, followed by protein separation by SDS-PAGE and fluorescence scanning of the wet gel slabs. […] In contrast, the β-D-Araf aziridine ABPs 3 and 4 selectively labelled GBA2 at a concentration of 100 nM, while Cy5 tagged ABP 5 did so at 500 nM. The GBA2 selectivity of β-D-Araf cyclitol aziridines 3, 4 and 5 was confirmed in a mixture of a lysate of overexpressed GBA2 cells spiked with 3 ng rhGBA1 (Fig. 2C and ESI Fig. S3 ^†). […] Therefore, only a combined inactivation rate constant (kinact) and binding constant (KI) ratio (kinact/KI) could be measured. […] Importantly, no labelling of GBA1 or GBA3 was detected under varying pH and time conditions (ESI Fig. S4-2 ^†). […]
2.8 β-Glucosidase inactivation visualized by competitive ABPP with SDS-PAGE In general, samples containing GBA1, GBA2 or GBA3 (see the exact constitution of these samples in the described case) are first incubated (in vitro or in situ) with the inactivator compounds, subsequently, the fluorescent readout ABPs were added and incubated with the mixture to reveal the residual active β-glucosidase enzymes. […]

Row | SMILES | Concentration at which marginal GBA1 labelling occurs [µM]
1 | COc1ccc(C2=[N+]3C(=C(CCCCc4cn(CCCCCCCCN5[C@@H]6[C@H](CO)[C@@H](O)[C@H](O)[C@@H]65)nn4)c4ccc(-c5ccc(OC)cc5)n4[B-]3(F)F)C=C2)cc1 (some centres unmarked) [ABP 4] | 10
2 | CC1=CC(C)=[N+]2C1=C(CCCCc1cn(CCCCCCCCN3[C@@H]4[C@H](CO)[C@@H](O)[C@H](O)[C@@H]43)nn1)c1c(C)cc(C)n1[B-]2(F)F (some centres unmarked) [ABP 3] | 10
